From ChEMBL document CHEMBL2021857, “Synthesis, biological activity and docking study of imidazol-5-one as novel non-nucleoside HIV-1 reverse transcriptase inhibitors” (Bioorg Med Chem, 2012)

Molecular target: Human immunodeficiency virus type 1 reverse transcriptase (Human immunodeficiency virus 1) (UniProt Q72547)
Assay: Inhibition of HIV-1 reverse transcriptase at 20 ug after 1 hr by colorimetry

| Compound | inhibition [%] |
| --- | --- |
| C/C=C1/N=C(c2ccccc2)N(Cc2ccncc2)C1=O | 61.5 |
| CC1=N/C(=C/c2ccccc2)C(=O)N1Cc1ccncc1 | 60.7 |
| CC1=N/C(=C/c2ccc(N(C)C)cc2)C(=O)N1Cc1ccncc1 | 58.1 |
| O=C1/C(=C\c2ccccc2)N=C(c2ccccc2)N1Cc1ccncc1 | 54.4 |
| CC1=N/C(=C/c2c[nH]c3ccccc23)C(=O)N1Cc1ccncc1 | 58.7 |
| CC1=N/C(=C/c2ccccc2O)C(=O)N1Cc1ccncc1 | 74.2 |
| O=C1/C(=C\c2ccccc2O)N=C(c2ccccc2)N1Cc1ccncc1 | 43.2 |
| COc1cc(/C=C2/N=C(c3ccccc3)N(Cc3ccncc3)C2=O)cc(OC)c1OC | 57.8 |
| COc1cc(/C=C2/N=C(c3ccccc3)N(Cc3ccncc3)C2=O)ccc1O | 50.2 |
| O=C1/C(=C\c2ccco2)N=C(c2ccccc2)N1Cc1ccncc1 | 62.5 |
| CC1=N/C(=C/c2ccc(Cl)cc2)C(=O)N1Cc1ccncc1 | 69.8 |
| O=C1/C(=C\c2ccc(Cl)cc2Cl)N=C(c2ccccc2)N1Cc1ccncc1 | 70 |
| COc1ccc(/C=C2/N=C(c3ccccc3)N(Cc3ccncc3)C2=O)cc1 | 50 |
| COc1cc(/C=C2/N=C(C)N(Cc3ccncc3)C2=O)cc(OC)c1OC | 67 |
| O=C1/C(=C\c2ccc(Cl)cc2)N=C(c2ccccc2)N1Cc1ccncc1 | 47 |
| CN(C)c1ccc(/C=C2/N=C(c3ccccc3)N(Cc3ccncc3)C2=O)cc1 | 36.8 |
| COc1ccc(/C=C2/N=C(C)N(Cc3ccncc3)C2=O)cc1 | 59.2 |
| CC1=N/C(=C/c2ccco2)C(=O)N1Cc1ccncc1 | 92.7 |
| C/C=C1/N=C(C)N(Cc2ccncc2)C1=O | 64.3 |
| CC1=N/C(=C/c2ccc(Cl)cc2Cl)C(=O)N1Cc1ccncc1 | 62.8 |

Molecular target: Human immunodeficiency virus type 1 reverse transcriptase (Human immunodeficiency virus 1, UniProt Q72547)
Assay: Inhibition of HIV-1 reverse transcriptase after 1 hr by colorimetry

| Compound | IC50 [µM] |
| --- | --- |
| CC1=N/C(=C/c2ccccc2O)C(=O)N1Cc1ccncc1 | 3.5 |
| CC1=N/C(=C/c2ccc(Cl)cc2)C(=O)N1Cc1ccncc1 | 3.9 |
| O=C1/C(=C\c2ccc(Cl)cc2Cl)N=C(c2ccccc2)N1Cc1ccncc1 | 3.8 |
| CC1=N/C(=C/c2ccco2)C(=O)N1Cc1ccncc1 | 2.5 |
